Laboratory results taken from patent publication US20180353460A1, “METHODS OF TREATING UROLOGICAL DISORDERS USING SARMs” (priority 2014, published 2018).
Like-named read-outs stand apart in the source and are kept apart here.

Key:
[1] = tested on: levator ani muscle; test: Hershberger assays of compounds H-1 to H-4; format: in vivo, rat; conditions: calculated in Win Non-Lin
Procedure: FIG. 3 depicts results of Hershberger assays of compounds of the invention as described in Example 17. AUC is area under the concentration-time curve.
Hershberger assays as described above for Formulas VIII-XIV were also performed on compounds H-1, H-2, H-3, & H-4, as reported in FIG. 3, along with AR binding data in some cases in Table 11. The reported Emax values were calculated in Win Non-Lin®.

[2] = tested on: women with stress urinary incontinence; conditions: cited from earlier work; for median incontinence episode frequency decreased: placebo 41%
[3] = tested on: levator ani muscle; test: Levator ani muscle weight in castrated rats treated subcutaneously for 14 days; format: in vivo, rat; conditions: castrated Sprague Dawley rats, subcutaneous, 3 mg/day
Description: At sacrifice, organs were weighed and expressed as raw organ weights. Values are expressed as average±S.D. Increased size and strength of pelvic floor muscles is one mechanism by which SARMs are believed to affect UI.
At sacrifice, organs were weighed and expressed as raw organ weights. Values are expressed as average±S.D.

[4] = tested on: prostate, seminal vesicles and levator ani muscle; test: Androgenic and anabolic activity in castrated immature male rats, subcutaneous osmotic pumps, 14 days; format: in vivo, rat
Procedure: Immature male Sprague-Dawley rats, weighing 90 to 100 g, were purchased from Harlan Biosciences (Indianapolis, Ind.). The animals were maintained on a 12 hour light-dark cycle with food and water available ad libitum.
Rats were randomly distributed into treatment groups groups. One day prior to the start of drug treatment, animals were individually removed from the cage, weighed and anesthetized with an intraperitoneal dose of ketamine/xylazine (87/13 mg/kg; approximately 1 mL per kg). When appropriately anesthetized (i.e., no response to toe pinch), the animals' ears were marked for identification purposes. Animals were then placed on a sterile pad and their abdomen and scrotum washed with betadine and 70% alcohol. The testes were removed via a midline scrotal incision, with sterile suture being used to ligate supra-testicular tissue prior to surgical removal of each testis. The surgical wound site was closed with sterile stainless steel wound clips, and the site cleaned with betadine. The animals were allowed to recover on a sterile pad (until able to stand) and then returned to their cage.
Twenty-four hours later, animals were re-anesthetized with ketamine/xylazine, and an Alzet osmotic pump(s) (model 2002) was placed subcutaneouly in the scapular region. In this instance, the scapular region was shaved and cleaned (betadine and alcohol) and a small incision (1 cm) made using a sterile scalpel. The osmotic pump was inserted and the wound closed with a sterile stainless steel wound clip. Animals were allowed to recover and were returned to their cage. Osmotic pumps contained the appropriate treatment dissolved in polyethylene glycol 300 (PEG300). Osmotic pumps were filled with the appropriate solution one day prior to implantation. Animals were monitored daily for signs of acute toxicity to drug treatment (e.g., lethargy, rough coat).
After 14 days of drug treatment, rats were anesthetized with ketamine/xylazine. Animals were then sacrificed by exsanguinations under anesthesia. A blood sample was collected by venipuncture of the abdominal aorta, and submitted for complete blood cell analysis. A portion of the blood was placed in a separate tube, centrifuged at 12,000 g for 1 minute, and the plasma layer removed and frozen at −20° C. The ventral prostates, seminal vesicles, levator ani muscle, liver, kidneys, spleen, lungs, and heart were removed, cleared of extraneous tissue, weighed, and placed in vials containing 10% neutral buffered formalin. Preserved tissues were sent for histopathological analysis.
For data analysis, the weights of all organs were normalized to body weight, and analyzed for any statistical significant difference by single-factor ANOVA. The weights of prostate and seminal vesicle were used as indexes for evaluation of androgenic activity, and the levator ani muscle weight was used to evaluate the anabolic activity.

[5] = biological target: T1, AR (Homo sapiens, UniProt P10275); test: biochemical; format: binding
T1 sequence (P10275 1-920): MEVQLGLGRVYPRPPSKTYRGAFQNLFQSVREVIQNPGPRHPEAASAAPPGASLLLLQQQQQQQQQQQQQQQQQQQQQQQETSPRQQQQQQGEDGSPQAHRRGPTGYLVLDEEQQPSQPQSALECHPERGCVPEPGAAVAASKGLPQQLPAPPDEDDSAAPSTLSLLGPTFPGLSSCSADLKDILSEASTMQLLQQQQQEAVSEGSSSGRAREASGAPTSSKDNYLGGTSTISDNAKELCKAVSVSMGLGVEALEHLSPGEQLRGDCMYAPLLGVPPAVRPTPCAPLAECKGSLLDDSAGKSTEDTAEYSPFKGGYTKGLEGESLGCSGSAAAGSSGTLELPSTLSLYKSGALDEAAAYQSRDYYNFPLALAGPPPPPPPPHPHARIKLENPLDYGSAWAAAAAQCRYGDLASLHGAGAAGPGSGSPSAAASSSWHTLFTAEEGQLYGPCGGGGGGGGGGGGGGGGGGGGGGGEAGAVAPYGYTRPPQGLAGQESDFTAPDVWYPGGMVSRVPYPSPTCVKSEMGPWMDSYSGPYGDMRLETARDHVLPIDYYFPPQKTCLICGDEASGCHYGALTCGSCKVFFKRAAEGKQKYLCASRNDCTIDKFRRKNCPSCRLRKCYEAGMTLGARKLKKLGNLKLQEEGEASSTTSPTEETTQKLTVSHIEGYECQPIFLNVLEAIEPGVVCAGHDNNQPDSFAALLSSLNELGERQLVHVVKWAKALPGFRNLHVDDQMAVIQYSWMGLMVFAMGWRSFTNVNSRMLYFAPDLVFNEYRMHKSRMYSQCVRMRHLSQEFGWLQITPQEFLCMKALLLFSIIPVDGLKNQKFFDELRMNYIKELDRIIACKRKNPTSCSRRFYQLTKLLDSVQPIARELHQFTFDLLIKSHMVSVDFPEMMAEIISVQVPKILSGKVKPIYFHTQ

[6] = tested on: ovariectomized rat model; conditions: cited from earlier work
[7] = tested on: female rats with experimentally induced stress urinary incontinence; conditions: rat models of SUI; cited from earlier work
[8] = compared with testosterone propionate
[9] = castrated rats, 0.10 mg/day, 14 days
[10] = castrated rats, 0.50 mg/day, 14 days
[11] = castrated rats, 0.75 mg/day, 14 days
[12] = castrated rats, 1.00 mg/day, 14 days
[13] = compared with the vehicle control

For C[C@](O)(COc1ccc(I)cc1)C(=O)Nc1ccc([N+](=O)[O-])c(C(F)(F)F)c1 [Compound H-4], the “Emax in levator ani muscle” value [1] was 95 ± 7 % of intact control.
In the case of CNCC[C@H](Oc1cccc2ccccc12)c1cccs1 [duloxetine], the “reduction in incontinence episode frequency” value ([2]; Dmochowski et al., placebo 27%) is given as 50%, the “median incontinence episode frequency decreased” value ([2]; duloxetine 20 mg/day) is given as 54% and the “median incontinence episode frequency decreased” value ([2]; duloxetine 40 mg/day) is given as 59%. For the same compound, the “median incontinence episode frequency decreased” value ([2]; duloxetine 80 mg/day) was 64%.
For C[C@]12CCC(=O)C[C@@H]1CC[C@@H]1[C@@H]2CC[C@]2(C)[C@@H](O)CC[C@@H]12 [DHT, dihydrotestosterone, reference compound], the “levator ani muscle weight” value [3] was “elicits hypertrophy of the levator ani muscle”.
With C[C@](O)(COc1ccc(Cl)cc1)C(=O)Nc1ccc([N+](=O)[O-])c(C(F)(F)F)c1 [Compound H-2] the “Emax in levator ani muscle” value [1] was 136 ± 9 % of intact control.
For C[C@](O)(COc1ccc(Cl)cc1)C(=O)Nc1ccc(C#N)c(C(F)(F)F)c1 [Compound XI, (S)—N-(4-Cyano-3-(trifluoromethyl)phenyl)-3-(4-chlorophenoxy)-2-hydroxy-2-methylpropanamide], the “dose able to maintain levator ani muscle weight of castrated animals at the level of intact animals” value ([4]; castrated rats, 14 days) was 0.3 mg/day, the “weights of prostate, seminal vesicle and levator ani muscle” value ([4]; castrated rats, 14 days, FIG. 2) was “dose-dependent increases in prostate, seminal vesicle and levator ani muscle weights” and the “potency and intrinsic activity in increasing the weight of levator ani muscle” value [4, 8] was “greater potency and intrinsic activity”. The “potency and intrinsic activity in increasing the weights of prostate and seminal vesicle” value [4, 8] was “lower potency and intrinsic activity” and the Ki ([5]; read-out: binding affinity) was 3.4 ± 0.08 nM.
In the case of C[C@](O)(COc1ccc(F)cc1)C(=O)Nc1ccc(C#N)c(C(F)(F)F)c1 [Compound X, (S)—N-(4-Cyano-3-(trifluoromethyl)phenyl)-3-(4-fluorophenoxy)-2-hydroxy-2-methylpropanamide], the “levator ani muscle weight” value [3] is reported as “elicits hypertrophy of the levator ani muscle”, the “Levator Ani organ weight (Mean ± S.D.)” value [4, 9] is reported as 54.9 ± 5.77 % of intact and the “Prostate organ weight (Mean ± S.D.)” value [4, 9] is reported as 6.4 ± 0.82 % of intact. The “Seminal Vesicles organ weight (Mean ± S.D.)” value (“Seminal Vesicles organ weight” for short) [4, 9] was 8.8 ± 1.18 % of intact, the “Levator Ani organ weight (Mean ± S.D.)” value [4, 10] was 55.0 ± 9.23 % of intact and the “Prostate organ weight (Mean ± S.D.)” value [4, 10] was 6.2 ± 0.56 % of intact. The “Seminal Vesicles organ weight” value [4, 10] was 9.3 ± 1.57 % of intact, the “Levator Ani organ weight (Mean ± S.D.)” value [4, 11] was 68.9 ± 8.46 % of intact and the “Prostate organ weight (Mean ± S.D.)” value [4, 11] was 7.6 ± 0.74 % of intact. For the same compound, the “Seminal Vesicles organ weight” value [4, 11] was 9.8 ± 3.65 % of intact, the “Levator Ani organ weight (Mean ± S.D.)” value [4, 12] was 75.2±9.51 % of intact and the “Prostate organ weight (Mean ± S.D.)” value [4, 12] was 8.7±1.39 % of intact. For the same compound, the “Seminal Vesicles organ weight” value [4, 12] was 10.7±0.91 % of intact and the Ki ([5]; read-out: binding affinity) was 3.3 ± 0.08 nM.
For C[C@H](Nc1ccc(C#N)c(Cl)c1Cl)C(C)(C)O [GSK2849466A], the “increase of amplitude of urethral responses during sneezing (AURS)” value [6, 13] is listed as 74%, the “increase of urethral baseline pressure (UBP)” value [6, 13] is listed as 64% and the “rats with fluid leakage during sneezing” value ([6]; vehicle group 8/8) is listed as 1/8.
For C[C@](O)(COc1ccc(F)cc1)C(=O)Nc1ccc([N+](=O)[O-])c(C(F)(F)F)c1 [Compound H-1], the “Emax in levator ani muscle” value [1] was 75 ± 4 % of intact control.
For C[C@](O)(COc1ccc(Br)cc1)C(=O)Nc1ccc([N+](=O)[O-])c(C(F)(F)F)c1 [Compound H-3], the “Emax in levator ani muscle” value [1] was 64 ± 4 % of intact control and the Ki ([5]; read-out: Ki) was 13 ± 2 nM.
For C[C@]12CC[C@H]3[C@@H](CCC4=CC(=O)CC[C@@]43C)[C@@H]1CC[C@@H]2O [Testosterone, testosterone], the “leak point pressures and size of myofibers” value [7] is given as “improve leak point pressures and significantly increase the size of myofibers”.
